Results published in PubChem BioAssay AID2060621 (Molecular Pharmacology Branch, DTP, NCI, 2025).
Where “and” joins values, the source holds several entries; their conditions need not be identical. Identical values can stand only once. Each block holds one compound with its values, some of them ahead of it.

System: 324938-238-R-J1-PDC complex spheroids viability
Assay: Anticancer human tumor 324938-238-R-J1-PDC patient-derived bladder carcinoma cell line growth inhibition [CLK]
Details: for viability, T/C: stronger effect = lower value
How it was run: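 Patient-derived tumor cells grown as complex spheroids with HUVEC endothelial cells and mesenchymal stem cells, treated with drug combinations. Concentrations descend in half-log steps from near clinical Cmax, or from 10 microM if Cmax unknown.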

[1] = curve of first compound, second compound 0.0316 µM
[2] = curve of first compound, second compound 0.1 µM
[3] = curve of first compound, second compound 0.316 µM
[4] = curve of first compound, second compound 1 µM
[5] = curve of first compound, second compound 3.16 µM
[6] = curve of first compound, second compound 10 µM
[7] = second compound 0.0316 µM, first compound 0.0316 µM
[8] = second compound 0.0316 µM, first compound 0.1 µM
[9] = second compound 0.0316 µM, first compound 0.316 µM
[10] = second compound 0.0316 µM, first compound 1 µM
[11] = second compound 0.0316 µM, first compound 3.16 µM
[12] = second compound 0.0316 µM, first compound 10 µM
[13] = second compound 0.1 µM, first compound 0.0316 µM
[14] = second compound 0.1 µM, first compound 0.1 µM
[15] = second compound 0.1 µM, first compound 0.316 µM
[16] = second compound 0.1 µM, first compound 1 µM
[17] = second compound 0.1 µM, first compound 3.16 µM
[18] = second compound 0.1 µM, first compound 10 µM
[19] = second compound 0.316 µM, first compound 0.0316 µM
[20] = second compound 0.316 µM, first compound 0.1 µM
[21] = second compound 0.316 µM, first compound 0.316 µM
[22] = second compound 0.316 µM, first compound 1 µM
[23] = second compound 0.316 µM, first compound 3.16 µM
[24] = second compound 0.316 µM, first compound 10 µM
[25] = second compound 1 µM, first compound 0.0316 µM
[26] = second compound 1 µM, first compound 0.1 µM
[27] = second compound 1 µM, first compound 0.316 µM
[28] = second compound 1 µM, first compound 1 µM
[29] = second compound 1 µM, first compound 3.16 µM
[30] = second compound 1 µM, first compound 10 µM
[31] = second compound 3.16 µM, first compound 0.0316 µM
[32] = second compound 3.16 µM, first compound 0.1 µM
[33] = second compound 3.16 µM, first compound 0.316 µM
[34] = second compound 3.16 µM, first compound 1 µM
[35] = second compound 3.16 µM, first compound 3.16 µM
[36] = second compound 3.16 µM, first compound 10 µM
[37] = second compound 10 µM, first compound 0.0316 µM
[38] = second compound 10 µM, first compound 0.1 µM
[39] = second compound 10 µM, first compound 0.316 µM
[40] = second compound 10 µM, first compound 1 µM
[41] = second compound 10 µM, first compound 3.16 µM
[42] = second compound 10 µM, first compound 10 µM
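Also: viability read after seven days of drug exposure.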
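For viability, T/C in this document: 100% = DMSO vehicle control wells.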

SMILES: COc1ccc([C@@H](O)c2cc(-c3ncnc4cc(N5CCOCC5)ccc34)c(F)cc2Cl)nn1 + CN1CCN(c2cc(C(=O)Nc3cc4cc(-c5cnn(C)c5)ccc4cn3)ccn2)CC1
IC50 [1]: 2010 nM
IC50 [2]: 57.5 nM
IC50 [3]: < 31.6 nM
IC50 [4]: < 31.6 nM
IC50 [5]: < 31.6 nM
IC50 [6]: < 31.6 nM
viability, T/C [7]: 72%
viability, T/C [8]: 78.8%
viability, T/C [9]: 65.8%
viability, T/C [10]: 59.8%
viability, T/C [11]: 44.1%
viability, T/C [12]: 34.7%
viability, T/C [13]: 53%
viability, T/C [14]: 48%
viability, T/C [15]: 40.3%
viability, T/C [16]: 44.5%
viability, T/C [17]: 37.8%
viability, T/C [18]: 30.9%
viability, T/C [19]: 19.6%
viability, T/C [20]: 21.9%
viability, T/C [21]: 21.4%
viability, T/C [22]: 20.2%
viability, T/C [23]: 19%
viability, T/C [24]: 18.9%
viability, T/C [25]: 0.42%
viability, T/C [26]: 0.46%
viability, T/C [27]: 0.79%
viability, T/C [28]: 0.47%
viability, T/C [29]: 1.14%
viability, T/C [30]: 0.71%
viability, T/C [31]: 0.13%
viability, T/C [32]: 0.16%
viability, T/C [33]: 0.28%
viability, T/C [34]: 0.12%
viability, T/C [35]: 0.24%
viability, T/C [36]: 0.29%
viability, T/C [37]: 0.06%
viability, T/C [38]: 0.14%
viability, T/C [39]: 0.25%
viability, T/C [40]: 0.13%
viability, T/C [41]: 0.31%
viability, T/C [42]: 0.58%

SMILES: O=c1[nH]cc(F)c(=O)[nH]1 + CN1CCN(c2cc(C(=O)Nc3cc4cc(-c5cnn(C)c5)ccc4cn3)ccn2)CC1
IC50 [1]: 236 nM
IC50 [2]: 94.2 nM
IC50 [3]: < 31.6 nM
IC50 [4]: < 31.6 nM
IC50 [5]: < 31.6 nM
IC50 [6]: < 31.6 nM
viability, T/C [7]: 74%
viability, T/C [8]: 72.8%
viability, T/C [9]: 42.1%
viability, T/C [10]: 20.4%
viability, T/C [11]: 23.9%
viability, T/C [12]: 19.1%
viability, T/C [13]: 61.5%
viability, T/C [14]: 48.2%
viability, T/C [15]: 36.4%
viability, T/C [16]: 22.6%
viability, T/C [17]: 18.2%
viability, T/C [18]: 18.1%
viability, T/C [19]: 23.1%
viability, T/C [20]: 23.9%
viability, T/C [21]: 20.6%
viability, T/C [22]: 18.9%
viability, T/C [23]: 16.8%
viability, T/C [24]: 17%
viability, T/C [25]: 0.71%
viability, T/C [26]: 1.08%
viability, T/C [27]: 0.67%
viability, T/C [28]: 0.81%
viability, T/C [29]: 0.77%
viability, T/C [30]: 1.58%
viability, T/C [31]: 0.09%
viability, T/C [32]: 0.15%
viability, T/C [33]: 0.1%
viability, T/C [34]: 0.11%
viability, T/C [35]: 0.08%
viability, T/C [36]: 0.19%
viability, T/C [37]: 0.07%
viability, T/C [38]: 0.12%
viability, T/C [39]: 0.13%
viability, T/C [40]: 0.09%
viability, T/C [41]: 0.1%
viability, T/C [42]: 0.19%

SMILES: CC(=O)O[C@H]1C(=O)[C@@]2(C)[C@H]([C@H](OC(=O)c3ccccc3)[C@]3(O)C[C@H](OC(=O)[C@H](O)[C@@H](NC(=O)c4ccccc4)c4ccccc4)C(C)=C1C3(C)C)[C@]1(OC(C)=O)CO[C@@H]1C[C@@H]2O
viability, T/C (compound 0.0316 µM): 12.8% and 11.6%
viability, T/C (compound 0.1 µM): 12%
viability, T/C (compound 0.316 µM): 11.3% and 13.4%
viability, T/C (compound 1 µM): 12.2% and 10.1%
viability, T/C (compound 3.16 µM): 13.7% and 12.3%
viability, T/C (compound 10 µM): 15.3% and 14.2%
IC50 (curve of compound): < 31.6 nM

Now from value to compound, other results behind:

IC50 [1]: 2360 nM
IC50 [2]: < 31.6 nM
IC50 [3]: < 31.6 nM
IC50 [4]: < 31.6 nM
IC50 [5]: < 31.6 nM
IC50 [6]: < 31.6 nM
SMILES: C=C(F)C(=O)N1CCN(c2nc(OCC3CCCN3C)nc3c2CCN(c2cccc4cccc(Cl)c24)C3)CC1CC#N (configuration not stated) + CNC(=O)c1ccc(Nc2nc(OC3CCCC3)c3c(-c4ccc5nc(C)oc5c4)c[nH]c3n2)c(OC)c1
viability, T/C [7]: 89%
viability, T/C [8]: 82.6%
viability, T/C [9]: 83.2%
viability, T/C [10]: 75.7%
viability, T/C [11]: 41.3%
viability, T/C [12]: 0.18%
viability, T/C [13]: 23.1%
viability, T/C [14]: 24.9%
viability, T/C [15]: 25.2%
viability, T/C [16]: 23.1%
viability, T/C [17]: 24.9%
viability, T/C [18]: 0.17%
viability, T/C [19]: 16.2%
viability, T/C [20]: 16.2%
viability, T/C [21]: 17.7%
viability, T/C [22]: 20.2%
viability, T/C [23]: 16.7%
viability, T/C [24]: 0.14%
viability, T/C [25]: 18%
viability, T/C [26]: 17%
viability, T/C [27]: 15.3%
viability, T/C [28]: 17.6%
viability, T/C [29]: 16.4%
viability, T/C [30]: 0.16%
viability, T/C [31]: 17.5%
viability, T/C [32]: 15.3%
viability, T/C [33]: 14.6%
viability, T/C [34]: 16.4%
viability, T/C [35]: 14.5%
viability, T/C [36]: 0.17%
viability, T/C [37]: 16.7%
viability, T/C [38]: 16.8%
viability, T/C [39]: 15.5%
viability, T/C [40]: 18.6%
viability, T/C [41]: 14.3%
viability, T/C [42]: 0.3%

IC50 [1]: 39.6 nM
IC50 [2]: < 0.949 nM
IC50 [3]: < 0.949 nM
IC50 [4]: < 0.949 nM
IC50 [5]: < 0.949 nM
IC50 [6]: < 0.949 nM
SMILES: C=CC(=O)Nc1cc(Nc2nccc(-c3cn(C)c4ccccc34)n2)c(OC)cc1N(C)CCN(C)C + CNC(=O)c1ccc(Nc2nc(OC3CCCC3)c3c(-c4ccc5nc(C)oc5c4)c[nH]c3n2)c(OC)c1
viability, T/C (second compound 0.0316 µM, first compound 0.000949 µM): 92.5%
viability, T/C (second compound 0.0316 µM, first compound 0.003 µM): 87.2%
viability, T/C (second compound 0.0316 µM, first compound 0.00949 µM): 74.5%
viability, T/C (second compound 0.0316 µM, first compound 0.03 µM): 52.8%
viability, T/C (second compound 0.0316 µM, first compound 0.0949 µM): 38.6%
viability, T/C (second compound 0.0316 µM, first compound 0.3 µM): 27.7%
viability, T/C (second compound 0.1 µM, first compound 0.000949 µM): 30.5%
viability, T/C (second compound 0.1 µM, first compound 0.003 µM): 24.8%
viability, T/C (second compound 0.1 µM, first compound 0.00949 µM): 21.4%
viability, T/C (second compound 0.1 µM, first compound 0.03 µM): 20.3%
viability, T/C (second compound 0.1 µM, first compound 0.0949 µM): 15.6%
viability, T/C (second compound 0.1 µM, first compound 0.3 µM): 14.1%
viability, T/C (second compound 0.316 µM, first compound 0.000949 µM): 19%
viability, T/C (second compound 0.316 µM, first compound 0.003 µM): 16.8%
viability, T/C (second compound 0.316 µM, first compound 0.00949 µM): 19.2%
viability, T/C (second compound 0.316 µM, first compound 0.03 µM): 16.2%
viability, T/C (second compound 0.316 µM, first compound 0.0949 µM): 13.4%
viability, T/C (second compound 0.316 µM, first compound 0.3 µM): 12.9%
viability, T/C (second compound 1 µM, first compound 0.000949 µM): 16.8%
viability, T/C (second compound 1 µM, first compound 0.003 µM): 15.5%
viability, T/C (second compound 1 µM, first compound 0.00949 µM): 16.8%
viability, T/C (second compound 1 µM, first compound 0.03 µM): 11.8%
viability, T/C (second compound 1 µM, first compound 0.0949 µM): 11.1%
viability, T/C (second compound 1 µM, first compound 0.3 µM): 11.5%
viability, T/C (second compound 3.16 µM, first compound 0.000949 µM): 16.8%
viability, T/C (second compound 3.16 µM, first compound 0.003 µM): 17.6%
viability, T/C (second compound 3.16 µM, first compound 0.00949 µM): 13.1%
viability, T/C (second compound 3.16 µM, first compound 0.03 µM): 14.3%
viability, T/C (second compound 3.16 µM, first compound 0.0949 µM): 11.9%
viability, T/C (second compound 3.16 µM, first compound 0.3 µM): 11.8%
viability, T/C (second compound 10 µM, first compound 0.000949 µM): 18.1%
viability, T/C (second compound 10 µM, first compound 0.003 µM): 17.9%
viability, T/C (second compound 10 µM, first compound 0.00949 µM): 14.8%
viability, T/C (second compound 10 µM, first compound 0.03 µM): 13.2%
viability, T/C (second compound 10 µM, first compound 0.0949 µM): 12.4%
viability, T/C (second compound 10 µM, first compound 0.3 µM): 11.5%

IC50 (curve of compound): 8810 nM and 4580 nM
SMILES: CC1(C)CCC(CN2CCN(c3ccc(C(=O)NS(=O)(=O)c4ccc(NCC5CCOCC5)c([N+](=O)[O-])c4)c(Oc4cnc5[nH]ccc5c4)c3)CC2)=C(c2ccc(Cl)cc2)C1
viability, T/C (compound 0.0316 µM): 85.9% and 77.8%
viability, T/C (compound 0.1 µM): 79.9% and 82.2%
viability, T/C (compound 0.316 µM): 84.2% and 75.7%
viability, T/C (compound 1 µM): 82% and 77.7%
viability, T/C (compound 3.16 µM): 77.1% and 68.8%
viability, T/C (compound 10 µM): 46.6% and 10.4%
